In patent US9844599B2, “Nitric oxide releasing produgs of therapeutic agents” (priority 2013, dated 2017):
Entries after “also recorded” stand apart in the source; their conditions may differ. Where two headings read alike, the source gives them in different places.

How the values were obtained:
[1] = Stability of prodrugs / release of parent drug in Simulated Gastric Fluid (SGF); format: in vitro ADME
Experimental: SGF was prepared according to the procedure described in Test Solution—USP. Thus, 0.2 g of sodium chloride and 0.32 g of purified pepsin (Sigma, derived from porcine stomach mucosa with an activity of 800 to 2500 units per mg of protein) were dissolved in 0.7 mL of hydrochloric acid and sufficient water to make 100 mL. This test solution has a pH of about 1.2 and was utilized for in-vitro studies.
The solution of the test compound in acetonitrile (10 μL of […] solution) was dissolved in 990 μL of biological fluid (SGF/SIF/Human Plasma). The resulting reaction mixtures were incubated at 37° C. At specified time intervals, aliquots (60 μL) were withdrawn and added to acetonitrile (200 μL) and mixed well by vortexing for 2 minutes. The mixture was centrifuged at 13000 rpm for 15 min at 4° C., and the supernatant analyzed by HPLC. The amounts (area percentages) of the remaining intact prodrug (if any) and the released metabolite(s) were estimated by HPLC.
This was performed by using HPLC instrument (Waters alliance), pump 2695, and PDA detector 2996 with the following chromatographic parameters: Wavelength −210 nm; Column-Waters X-Terra RP-18, 150×3.9 mm, 5 μm; Injection volume, 25 μL; Run time, 13 min. Mode of operation was linear gradient with mobile phase A: Acetonitrile and B: 0.1% TFA in water (filtered and degassed). Flow rate was 1.0 mL/min at 25° C.

[2] = tested on: serum thromboxane B2 (TXB2) formation; assay: Inhibition of serum thromboxane B2 (TXB2) formation; format: in vivo, Sprague-Dawley (SD) rats; settings: Rattus norvegicus, po, 168 h; SD rats, 30 mg/kg aspirin or equimolar 44.82 mg/kg, o.d., 7 days
Experimental: Aspirin is used as an antiplatelet agent for the treatment of cardiovascular complications. […] It is therefore possible to achieve complete suppression of platelet. TXA2 (and also TXB2) formation via chronic administration of aspirin at a dose of 30 mg/daily (Patrignani, P., et al. J. Clin. Invest. 1982, 69, 1366-1372). The antiplatelet activity of aspirin (30 mg/kg) and its prodrug I-D1-R1 (at a dose equimolar to 30 mg/kg dose of aspirin) was evaluated in Sprague-Dawley (SD) rats through estimation of serum TXB2 levels (Esser, R. et al., Br. J. Pharmacol. 2006, 144, 538-550) and the experimental results are presented in FIG. 7.
In vivo TXB2 inhibition potential of aspirin and NO-aspirin prodrugs was assessed in Sprague-Dawley (SD) rats; the serum TXB2 levels were estimated according to the reported procedure (R. Esser, R., et al., Br. J. Pharmacol. 2006, 144, 538-550). Thus, vehicle, aspirin (30 mg/kg) or aspirin prodrug I-D1-R1 (44.82 mg/kg which is equivalent to 30 mg/kg dose of aspirin) were administered orally to the overnight fasted SD rats. […] The serum TXB2 concentrations were determined by enzyme immunoassay (EIA) using commercially available TXB2 estimation kit (Cayman Chemicals, USA), according to the method described in kit information booklet.

[3] = Stability of prodrugs at RT and at 50° C. (capped vials); format: physicochemical
[4] = Acute gastric ulcerogenesis activity study; settings: rats, acute oral; aspirin 100 mg/kg, I-D1-R1 298.85 mg/kg, naproxen 100 mg/kg, I-D2-R1 138.67 mg/kg
Experimental: The animals were sacrificed after 5 h of drug administration. The stomachs of the treated animals were separated, perfused with 2% formalin (10 mL), and a large curvature was excised. The severity of the mucosal damage was assessed on the basis of the size of the observed ulcer lesions in the images captured using a stereomicroscope attached to a digital camera (Stemi 2000, Zeiss, Germany). The Image Pro Plus software (version 5.1) was used to quantify the hemorrhagic/ulcer lesions in pixels and to convert them into mm^2. The total area of lesions was calculated for each treatment group and the measure of gastric ulcers (Mean±SEM) (mm^2) was estimated (FIGS. 5 and 6).

[5] = simulated gi fluid, 0 h, 1 µM, pH 1.2
[6] = simulated gi fluid, 5 min, 1 µM, pH 1.2
[7] = simulated gi fluid, 10 min, 1 µM, pH 1.2
[8] = simulated gi fluid, 0.5 h, 1 µM, pH 1.2
[9] = simulated gi fluid, 1 h, 1 µM, pH 1.2
[10] = simulated gi fluid, 2 h, 1 µM, pH 1.2
[11] = simulated gi fluid, 3 h, 1 µM, pH 1.2
[12] = simulated gi fluid, 1 µM, pH 1.2

## CC(=O)Oc1ccccc1C(=O)O [Aspirin, aspirin, reference compound]
[1]; 1 µM, pH 1.2
  AUC of aspirin (released / remaining) in SGF: 12348 µM·h
[2]
  inhibition at 30 mg/kg: 76%

## COc1ccc2cc([C@H](C)C(=O)OC(C)O[N+](=O)[O-])ccc2c1 (stereo partly drawn) [I-D2-R1, (2S)-1-(nitrooxy)ethyl 2-(6-methoxynaphthalen-2-yl)propanoate]
[1]
  Release of parent drug on incubation in SGF (in words): released quantitative amounts of the parent drug, naproxen
[1]; [5]
  Prodrug Remaining (%): 100.00%
[1]; [6]
  Prodrug Remaining (%): 84.68%
[1]; [7]
  Prodrug Remaining (%): 74.58%
[1]; [8]
  Prodrug Remaining (%): 32.79%
[1]; [9]
  Prodrug Remaining (%): 0.00%
[1]; [10]
  Prodrug Remaining (%): 0.00%
[1]; [11]
  Prodrug Remaining (%): 0.00%
[3]; 50° C., 0 h
  Nap (Naproxen) formed on storage: NIL
  Prodrug (area %) on storage: 99.12%
[3]; 50° C., 25 d
  Nap (Naproxen) formed on storage: 0.33%
  Prodrug (area %) on storage: 99.00%
[3]; RT, 0 h
  Nap (Naproxen) formed on storage: NIL
  Prodrug (area %) on storage: 99.12%
[3]; RT, 25 d
  Nap (Naproxen) formed on storage: 0.2%
  Prodrug (area %) on storage: 98.87%
[3]; both at RT and at 50° C., up to 25 days
  Stability on storage (in words): remained stable
other
  melting point: 69 to 71 °C
[4]
  Development of gastric ulcers or lesions: none of the animals

## CCC(OC(=O)[C@@H](C)c1ccc2cc(OC)ccc2c1)O[N+](=O)[O-] (stereo partly drawn) [I-D2-R2, (2S)-1-(nitrooxy)propyl 2-(6-methoxynaphthalen-2-yl)propanoate]
[1]
  Release of parent drug on incubation in SGF (in words): released naproxen
[1]; [5]
  Prodrug Remaining (%): 100%
[1]; [12]
  t1/2 of prodrug in SGF: ~1 h
[1]; [6]
  Prodrug Remaining (%): 94.33%
[1]; [7]
  Prodrug Remaining (%): 90.43%
[1]; [8]
  Prodrug Remaining (%): 62.15%
[1]; [9]
  Prodrug Remaining (%): 51.01%
[1]; [10]
  Prodrug Remaining (%): 39.08%
[1]; [11]
  Prodrug Remaining (%): 6.77%

## CCCC(OC(=O)[C@@H](C)c1ccc2cc(OC)ccc2c1)O[N+](=O)[O-] (stereo partly drawn) [I-D2-R3, (2S)-1-(nitrooxy)butyl 2-(6-methoxynaphthalen-2-yl)propanoate]
[1]
  Release of parent drug on incubation in SGF (in words): released naproxen
[1]; [5]
  Prodrug Remaining (%): 100%
[1]; [12]
  t1/2 of prodrug in SGF: ~2.5 h
[1]; [6]
  Prodrug Remaining (%): 96.35%
[1]; [7]
  Prodrug Remaining (%): 93.61%
[1]; [8]
  Prodrug Remaining (%): 82.73%
[1]; [9]
  Prodrug Remaining (%): 75.48%
[1]; [10]
  Prodrug Remaining (%): 57.55%
[1]; [11]
  Prodrug Remaining (%): 39.00%

## CCCCC(OC(=O)[C@@H](C)c1ccc2cc(OC)ccc2c1)O[N+](=O)[O-] (stereo partly drawn) [I-D2-R4, (2S)-1-(nitrooxy)pentyl 2-(6-methoxynaphthalen-2-yl)propanoate]
[1]
  Release of parent drug on incubation in SGF (in words): released appreciable amounts of the parent drug naproxen
[1]; [5]
  Prodrug Remaining (%): 100%
[1]; [12]
  t1/2 of prodrug in SGF: >3 h
[1]; [6]
  Prodrug Remaining (%): 97.74%
[1]; [7]
  Prodrug Remaining (%): 96.18%
[1]; [8]
  Prodrug Remaining (%): 90.53%
[1]; [9]
  Prodrug Remaining (%): 88.87%
[1]; [10]
  Prodrug Remaining (%): 79.97%
[1]; [11]
  Prodrug Remaining (%): 71.04%

## CC(OC(=O)CCCc1ccc(N(CCCl)CCCl)cc1)O[N+](=O)[O-] (stereo not shown) [I-D3-R1, 1-(nitrooxy)ethyl 4-(4-(bis(2-chloroethyl)amino)phenyl)butanoate]
[1]; SGF, 0 min
  Prodrug Remaining (%): 92.12%
[1]; SGF, 5 min
  Prodrug Remaining (%): 20.49%
[1]; SGF, 10 min
  Prodrug Remaining (%): 13.84%
[1]; SGF, 15 min
  Prodrug Remaining (%): 8.59%
[1]; SGF, 30 min
  Prodrug Remaining (%): 0.00%
[1]; SGF, 60 min
  Prodrug Remaining (%): 0.00%
[1]; SGF, 120 min
  Prodrug Remaining (%): 0.00%
[1]; SGF, 180 min
  Prodrug Remaining (%): 0.00%
[1]; SGF, whole time course
  Release of parent drug on incubation in SGF (in words): quantitative release of the parent drug, chlorambucil; also recorded: released its parent drug chlorambucil quantitatively
[1]; simulated gi fluid, pH 1.2, SGF, read-out: t1/2 of prodrug in SGF
  half-life at 1 µM: < 5 min

## CC(=O)Oc1ccccc1C(=O)Oc1cccc(CO[N+](=O)[O-])c1 [II-D1-X1, reference compound]
[1]
  Fate of prodrug on incubation in SGF (in words): remained intact
[1]; [5]
  % of Prodrug remaining (μM): 100.00%
[1]; [6]
  % of Prodrug remaining (μM): 100.00%
[1]; [7]
  % of Prodrug remaining (μM): 100.00%
[1]; [8]
  % of Prodrug remaining (μM): 100.00%
[1]; [9]
  % of Prodrug remaining (μM): 100.00%
[1]; [10]
  % of Prodrug remaining (μM): 100.00%

## COc1ccc2cc([C@H](C)C(=O)OCCO[N+](=O)[O-])ccc2c1 [II-D2-X2, reference compound]
[1]
  Fate of prodrug on incubation in SGF (in words): remained intact
  Release of parent drug on incubation in SGF (in words): no release of parent drug naproxen
[1]; [5]
  Prodrug Remaining (%): 100.00%
[1]; [6]
  Prodrug Remaining (%): 99.68%
[1]; [7]
  Prodrug Remaining (%): 99.79%
[1]; [8]
  Prodrug Remaining (%): 99.75%
[1]; [9]
  Prodrug Remaining (%): 99.67%
[1]; [10]
  Prodrug Remaining (%): 99.39%
[1]; [11]
  Prodrug Remaining (%): 99.19%

## COc1ccc2cc([C@H](C)C(=O)OCCCO[N+](=O)[O-])ccc2c1 [II-D2-X3, reference compound]
[1]; [5]
  Prodrug Remaining (%): 100.00%
[1]; [6]
  Prodrug Remaining (%): 100.00%
[1]; [7]
  Prodrug Remaining (%): 100.00%
[1]; [8]
  Prodrug Remaining (%): 100.00%
[1]; [9]
  Prodrug Remaining (%): 100.00%
[1]; [10]
  Prodrug Remaining (%): 100.00%
[1]; [11]
  Prodrug Remaining (%): 100.00%

## COc1ccc2cc([C@H](C)C(=O)OCCCCO[N+](=O)[O-])ccc2c1 [II-D2-X4, reference compound]
[1]; [5]
  Prodrug Remaining (%): 100.00%
[1]; [6]
  Prodrug Remaining (%): 100.00%
[1]; [7]
  Prodrug Remaining (%): 100.00%
[1]; [8]
  Prodrug Remaining (%): 100.00%
[1]; [9]
  Prodrug Remaining (%): 100.00%
[1]; [10]
  Prodrug Remaining (%): 100.00%
[1]; [11]
  Prodrug Remaining (%): 100.00%
